Results: paper PMC6445138 (2019)
One block for each molecule: values may come before it.

What was measured:
[1] = test system: ab13_14_15 (RNA, riboswitch, abasic at 13, 14 and 15) CUGGGUCGCAGUNNNCCCAGUUAACAAAACAAG; assay: X-ray crystallography
[2] = test system: 5′-Cy5-BsPreQ1-RS (RNA, riboswitch) AGAGGUUCUAGCUACACCCUCUAUAAAAAACUAA; assay: fluorescence intensity titration of labelled RNA; conditions: 100 mM KCl, 1 mM MgCl2; 50 mM Tris pH 7.5, 10% DMSO, room temperature, RNA 50 nM; apparent
[3] = test system: 5′-AF647-TtPreQ1-RS (RNA, riboswitch) CUGGGUCGCAGUAACCCCAGUUAACAAAACAAG; assay: fluorescence intensity titration of labelled RNA; conditions: 100 mM KCl, 1 mM MgCl2; 50 mM Tris pH 7.5, 10% DMSO, room temperature, RNA 50 nM; apparent
[4] = test system: ab13_14 (RNA, riboswitch, abasic at 13 and 14) CUGGGUCGCAGUNNCCCCAGUUAACAAAACAAG; assay: X-ray crystallography
[5] = test system: SsPreQ1-RS (unlabeled) (RNA, riboswitch) AGAGGUUCCUAGCUGAUACCCUCUAUAAAAAACUA; assay: WaterLOGSY NMR; conditions: 100 mM KCl, 1 mM MgCl2
[6] = test system: BsPreQ1-RS (unlabeled) (RNA, riboswitch) AGAGGUUCUAGCUACACCCUCUAUAAAAAACUAA; assay: WaterLOGSY and CPMG NMR; conditions: 100 mM KCl, 1 mM MgCl2; 50 mM Tris-d11 pH 7.5, 5% DMSO-d6; non-binding control, tested at 375 µM
[7] = test system: TtPreQ1-RS (unlabeled) (RNA, riboswitch) CUGGGUCGCAGUAACCCCAGUUAACAAAACAAG; assay: WaterLOGSY and CPMG NMR; conditions: 100 mM KCl, 1 mM MgCl2; 50 mM Tris-d11 pH 7.5, 5% DMSO-d6; non-binding control, tested at 375 µM
[8] = test system: 5′-AF647-BsPreQ1-RS (RNA, riboswitch) GGAGAGGUUCUAGCUACACCCUCUAUAAAAAACUAA; assay: in-line probing; conditions: 10 mM KCl, 2 mM MgCl2
[9] = test system: BsPreQ1-RS (unlabeled) (RNA, riboswitch) AGAGGUUCUAGCUACACCCUCUAUAAAAAACUAA; assay: inherent ligand fluorescence titration; conditions: 100 mM KCl, 1 mM MgCl2; 50 mM Tris pH 7.5, 5% DMSO, room temperature, compound 500 nM
[10] = test system: TtPreQ1-RS (unlabeled) (RNA, riboswitch) CUGGGUCGCAGUAACCCCAGUUAACAAAACAAG; assay: inherent ligand fluorescence titration; conditions: 100 mM KCl, 1 mM MgCl2; 50 mM Tris pH 7.5, 5% DMSO, room temperature, compound 500 nM
[11] = test system: Ss PreQ1 TTA transcript (RNA, riboswitch) AUGUAGUAAGGAGGUUGUAUGGAAGACGAGAGGUUCCUAGCUGAUACCCUCUAUAAAAAACUAGACACAUGUACAACGUCUGUCUUUUUUAUAGAGAUAGGCGUUUUUUUAUGCGCUUAUCUAAACCCUGUACCAGUUAGUUCGACUAUUUUUAAGGAGU; assay: single-round in vitro transcription termination; conditions: KCl, MgCl2; 20 mM Tris-HCl pH 8.0, 37 °C, E. coli RNA polymerase

binding ([4]; 1.94 Å): yes | KD [2]: 0.4 ± 0.1 µM | KD [3]: 0.6 ± 0.2 µM
SMILES: CN(C)CCOc1ccc2oc3ccccc3c2c1

binding ([5]; 50 mM Tris-d11 pH 7.5, 5% DMSO-d6, compound 375 µM): yes | binding ([8]; 50 mM Tris pH 8.3, 5% DMSO, room temperature, compound 0.1-300 µM): yes | binding ([4]; 1.8 Å): yes | binding ([1]; 1.8 Å): yes | KD [9]: 490 ± 368 nM | KD [10]: 99 ± 38 nM | EC50 [11]: 359 ± 23 µM | KD [2]: 0.534 ± 0.123 µM | KD [3]: 0.457 ± 0.202 µM
SMILES: NCCOc1ccc2oc3ccccc3c2c1

The next lines start with the molecule.

SMILES: CN(C)CCOc1ccc2[nH]c3ccccc3c2c1
binding ([1]; 2.56 Å): yes | KD [2]: 0.1 ± 0.08 µM | KD [3]: 0.1 ± 0.04 µM

SMILES: CN[C@H](C(=O)O)C(C)C
binding ([5]; 50 mM Tris-d11 pH 7.5, 5% DMSO-d6, non-binding control, tested at 375 µM): no | binding [6]: no | binding [7]: no

SMILES: NCc1c[nH]c2nc(N)[nH]c(=O)c12
binding ([8]; 50 mM Tris pH 8.3, room temperature, compound 10 µM): yes | binding ([4]; 1.69 Å): yes | EC50 [11]: 0.036 ± 0.005 µM | KD [2]: 0.0041 ± 0.0006 µM | KD [3]: 0.0028 ± 0.0004 µM
